From patent US20260097049A1, “C[…] AND METHODS OF USE FOR TREATMENT AND PREVENTION OF CANCER” (BlackStone Therapeutics, LLC, priority 2022, published 2026)
Read-outs that look alike come from different tables or passages of the source.

How the values were obtained:
Assay type in all cases: cell-based
PANC1 = assay: IC50 in cell lines (Table 4), PANC1; details: Homo sapiens, PANC-1
Description: (§1) Various compounds, including (R)-H4CBD and (S)-H4CBD, and H4CBDV racemic mixture, were tested for cell killing against various cancer cell lines, including PANC-1, HPAF-II, AsPC-1, and MIA-PaCa2.
(§2) Table 4 summarizes the measured IC50 for specific compounds in the indicated cell types.

MIA-PaCa2 = assay: IC50 in cell lines (Table 4), MIA-PaCa2; details: Homo sapiens, MIA PaCa-2
Description: as §1, §2

hERG = hERG (Homo sapiens, UniProt Q12809); assay: hERG assay
Sequence of hERG (Q12809 whole entry): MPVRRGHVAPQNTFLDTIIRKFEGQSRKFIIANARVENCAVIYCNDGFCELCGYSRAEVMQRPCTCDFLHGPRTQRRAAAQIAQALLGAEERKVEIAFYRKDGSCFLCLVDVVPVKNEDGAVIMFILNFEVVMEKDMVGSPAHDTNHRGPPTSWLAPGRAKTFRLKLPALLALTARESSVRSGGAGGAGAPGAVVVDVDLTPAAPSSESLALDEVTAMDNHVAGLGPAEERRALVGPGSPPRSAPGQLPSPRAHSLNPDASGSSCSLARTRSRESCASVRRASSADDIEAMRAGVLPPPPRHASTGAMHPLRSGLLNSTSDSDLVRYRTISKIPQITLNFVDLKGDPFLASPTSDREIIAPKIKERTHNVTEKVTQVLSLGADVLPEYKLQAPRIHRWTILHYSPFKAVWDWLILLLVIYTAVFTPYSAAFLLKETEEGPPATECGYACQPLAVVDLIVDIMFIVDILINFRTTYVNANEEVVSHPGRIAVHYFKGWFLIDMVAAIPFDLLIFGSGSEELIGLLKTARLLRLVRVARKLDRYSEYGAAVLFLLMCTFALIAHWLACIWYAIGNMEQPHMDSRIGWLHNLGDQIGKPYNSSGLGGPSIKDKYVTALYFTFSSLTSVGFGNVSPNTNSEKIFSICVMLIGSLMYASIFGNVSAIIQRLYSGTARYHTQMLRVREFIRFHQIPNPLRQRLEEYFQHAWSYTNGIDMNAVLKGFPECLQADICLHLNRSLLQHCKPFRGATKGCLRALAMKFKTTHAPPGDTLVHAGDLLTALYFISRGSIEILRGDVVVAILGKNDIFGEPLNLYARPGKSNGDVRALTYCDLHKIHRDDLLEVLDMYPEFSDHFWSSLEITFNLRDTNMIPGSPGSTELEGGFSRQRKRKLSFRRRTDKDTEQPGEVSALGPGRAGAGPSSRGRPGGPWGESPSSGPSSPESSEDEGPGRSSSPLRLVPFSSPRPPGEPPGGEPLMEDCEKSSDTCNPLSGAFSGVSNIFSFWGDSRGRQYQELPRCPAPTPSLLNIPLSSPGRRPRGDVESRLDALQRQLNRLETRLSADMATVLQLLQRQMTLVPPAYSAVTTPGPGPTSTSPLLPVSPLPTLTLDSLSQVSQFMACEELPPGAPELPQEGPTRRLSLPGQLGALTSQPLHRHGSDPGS
Description: (§3) At 50 μM, 74.8% of human fibroblasts died and 8% of hepatocytes.

hepatocytes = assay: Cytotoxicity in hepatocytes; details: at 50 μM
Description: as §3

Ames test = assay: Ames test
human fibroblasts = assay: Cytotoxicity in human fibroblasts
Description: as §3

[1] = system: A549 Lung Carcinoma Epithelial Cells (CCL-185 from ATCC); assay: Percent viability of lung carcinoma cells; details: for cell viability, comparison in words (figure legends): FIGS. 39, 42, 43; for viability at 1.56 µM / viability at 3.12 µM / viability at 6.25 µM / viability at 12.5 µM / viability at 25 µM / viability at 50 µM: Homo sapiens
Description: GR-X1=H4CBDV, GR-X2=(R)-H4CBD, GR-X3=(S)-H4CBD, GR-X4=HHC.
The IC50 of the hydrogenated cannabivarin, hexahydrocannabidivarin (H4CBDV), (R)-H4CBD, (S)-H4CBD, HHC racemic mixture, and gemcitabine, paclitaxel, and 5-fluorouracil were determined in lung carcinoma cells (A549 Lung Carcinoma Epithelial Cells (CCL-185 from ATCC)) as shown in FIGS. 39-43 and Table 3.

AsPC-1 [2] = assay: CellTiterGlo cell viability, AsPC-1 cells; details: Homo sapiens, ASPC1, 72 h
Description: (§4) The IC50 values for (R)-H4CBD, (S)-H4CBD, H4CBDV racemic mixture, and bortezomib were determined. Compound treatment of cells started one day after seeding with a final DMSO concentration of 0.1% and was performed by nanodrop-dispensing using a Tecan Dispenser. 0.1% DMSO (solvent) and Staurosporine (1,0E-05M) served as high control (100% viability) and low control (0% viability), respectively. For the assays, cells were seeded in white cell culture-treated flat and clear bottom multiwell plates and incubated at 37° C. overnight before compounds were added. After incubation for 72 h at 37° C. at 5% or 10% CO2 dependent on the medium, cell plates were equilibrated to room temperature for one hour, CellTiterGlo reagent (Promega) was added and luminescence was measured approximately an hour later using a luminometer.
(§5) Raw data were converted into percent cell viability relative to the high and low control, which were set to 100% and 0%, respectively. IC50 calculation was performed using GraphPad Prism software with a variable slope sigmoidal response fitting model using 0% viability as bottom constraint and 100% viability as top constraint. IC50 results in PANC-1, MIA-PaCa2, and AsPC-1 cells for (R)-H4CBD, (S)-H4CBD, H4CBDV racemic mixture, and bortezomib are shown in FIGS. 10-12 and Table 2

MiaPaCA-2 = assay: CellTiterGlo cell viability, MiaPaCA-2 cells; details: Homo sapiens, MIA PaCa-2, 72 h
Description: as §4, §5

PANC-1 = assay: CellTiterGlo cell viability, PANC-1 cells; details: Homo sapiens, 72 h
Description: as §4, §5

HPAFII = assay: IC50 in cell lines (Table 4), HPAFII; details: Homo sapiens, HPAF-II
Description: as §1, §2

AsPC-1 [3] = assay: IC50 in cell lines (Table 4), AsPC-1; details: Homo sapiens, ASPC1
Description: as §1, §2

[4] = A549, read-out: Percent viability of cells, Mean (%)
[5] = A549, agent concentration 1.56 uM, read-out: Percent viability of cells, Mean (%)
[6] = A549, agent concentration 3.12 uM, read-out: Percent viability of cells, Mean (%)
[7] = A549, agent concentration 6.25 uM, read-out: Percent viability of cells, Mean (%)
[8] = A549, agent concentration 12.5 uM, read-out: Percent viability of cells, Mean (%)
[9] = A549, agent concentration 25 uM, read-out: Percent viability of cells, Mean (%)
[10] = A549, agent concentration 50 uM, read-out: Percent viability of cells, Mean (%)

CCCc1cc(O)c2c(c1)OC(C)(C)C1CCC(C)CC21 (racemic) [CCL-103, HHCV]
IC50 (PANC1): 0.00507 mM
IC50 (MIA-PaCa2): 0.0197 mM

CCCCCCCc1cc(O)c(C2CC(C)CCC2C(C)C)c(O)c1 (racemic) [CCL-105, H4CBDP]
IC50 (PANC1): 0.00255 mM
IC50 (MIA-PaCa2): 0.0061 mM

CCCCCc1cc(O)c2c(c1)OC(C)(C)C1CCC(C)CC21 (racemic) [CCL-113, hexahydrocannabinol]
cytotoxicity in hERG assay (hERG): did not show cytotoxicity
hepatocytes died (hepatocytes): 8%
cytotoxicity in Ames test (Ames test): did not show cytotoxicity
IC50 (human fibroblasts; Homo sapiens, Fibroblast): 14.4 µM
human fibroblasts died (human fibroblasts; at 50 μM): 74.8%
cell viability, comparison in words (figure legends) [1]: the only compound that presented higher cell viability from 25 μM
viability at 1.56 µM [1, 4]: 92.5%
viability at 3.12 µM [1, 4]: 92.9%
viability at 6.25 µM [1, 4]: 95.6%
viability at 12.5 µM [1, 4]: 96.1%
viability at 25 µM [1, 4]: 81.6%
viability at 50 µM [1, 4]: 22.1%

O=c1[nH]cc(F)c(=O)[nH]1 [5-fluorouracil, reference compound]
cell viability, comparison in words (figure legends) [1]: presented the best cell viability when compared to the other two drugs, gemcitabine and paclitaxel

CC(C)C[C@H](NC(=O)[C@H](Cc1ccccc1)NC(=O)c1cnccn1)B(O)O [Bortezomib, reference compound]
IC50 (AsPC-1 [2]): 0.0334 µM
IC50 (MiaPaCA-2): 0.0149 µM
IC50 (PANC-1): 0.0134 µM

CCCCCc1cc(O)c2c(c1)OC(C)(C)C1CC[C@@H](C)CC21 (stereo partly drawn) [CCL-101, 9R-Hexahydrocannabinol]
IC50 (PANC1): 0.00908 mM
IC50 (HPAFII): 0.00884 mM
IC50 (MIA-PaCa2): 0.0127 mM
IC50 (AsPC-1 [3]): 0.0166 mM

CCCCCc1cc(O)c2c(c1)OC(C)(C)C1CC[C@H](C)CC21 (stereo partly drawn) [CCL-102, 9S-Hexahydrocannabinol]
IC50 (PANC1): 0.0172 mM
IC50 (HPAFII): 0.00702 mM
IC50 (MIA-PaCa2): 0.0272 mM
IC50 (AsPC-1 [3]): 0.0115 mM

CCCCCc1cc(O)c(C2C[C@H](C)CCC2C(C)C)c(O)c1 (stereo partly drawn) [CCL-111, (R)-H4CBD]
IC50 (AsPC-1 [2]): 4.85 µM
IC50 (MiaPaCA-2): 3.24 µM
IC50 (PANC-1): 5.29 µM

CCCCCc1cc(O)c(C2C[C@@H](C)CCC2C(C)C)c(O)c1 (stereo partly drawn) [CCL-112, (S)-H4CBD]
IC50 (AsPC-1 [2]): 6.17 µM
IC50 (MiaPaCA-2): 4.77 µM
IC50 (PANC-1): 8.02 µM

CCCCCc1cc(O)c(C2C[C@H](C)CCC2C(C)C)c(O)c1 (some centres unmarked) [R- H4CBDV]
viability at 1.56 µM [1, 5]: 92.3%
viability at 3.12 µM [1, 6]: 86.7%
viability at 6.25 µM [1, 7]: 86%
viability at 12.5 µM [1, 8]: 45%
viability at 25 µM [1, 9]: 14%
viability at 50 µM [1, 10]: 4.18%

CCCCCc1cc(O)c(C2C[C@@H](C)CCC2C(C)C)c(O)c1 (some centres unmarked) [S- H4CBDV]
viability at 1.56 µM [1, 5]: 94.2%
viability at 3.12 µM [1, 6]: 99.6%
viability at 6.25 µM [1, 7]: 94.1%
viability at 12.5 µM [1, 8]: 81.3%
viability at 25 µM [1, 9]: 13.8%
viability at 50 µM [1, 10]: 1.53%

CC(=O)O[C@H]1C(=O)[C@@]2(C)[C@H]([C@H](OC(=O)c3ccccc3)[C@]3(O)C[C@H](OC(=O)[C@H](O)[C@@H](NC(=O)c4ccccc4)c4ccccc4)C(C)=C1C3(C)C)[C@]1(OC(C)=O)CO[C@@H]1C[C@@H]2O [paclitaxel, reference compound]
cell viability, comparison in words (figure legends) [1]: higher cytotoxicity at a lower concentration than 5-flurouracil
